# In patent US12037346B2, “Amino-substituted heteroaryls for treating cancers with EGFR mutations” (Nuvalent, Inc., priority 2021, dated 2024):
# Columns and labels:
# Type in all cases: cell-based
# [1] = biological target: T1, wild-type EGFR (A431 cells) (Homo sapiens, UniProt P00533); experiment: Cellular phosphorylation assay, pEGFR (phospho-EGFR Tyr1068 AlphaLISA) in A431; details: compound incubated for 5 hours, EGF (30 ng/mL) for 15 minutes
# T1 construct: A431 bears amplification of the wild-type EGFR gene; endogenous in cells; host or cells: A431
# Procedure: (§1) Besides Ba/F3s, two commercially available cell lines were also used. NCI-H1781 is a HER2 exon20 insertion cell line bearing HER2-A775_G776insV-G776C. A431 bears amplification of the wild-type EGFR gene.
# (§2) Ba/F3 cells were plated at 50,000 cells/well (40 μL), or NCI-H1781 cells or A431 cells were plated at 12,500 cells/well (40 μL), in a 384-well plate for 1 day. Test compounds (40 nL) were then added in a 3-fold dilution series using the TECAN EV0200 liquid handler and incubated for 5 hours. Only for pEGFR analysis in A431, the cells were briefly stimulated with EGF (30 ng/mL) for 15 minutes. Media were removed using Apricot Designs. Phosphoproteins were analyzed using the phospho-EGFR Tyr1068 AlphaLISA kit (“pEGFR”; PerkinElmer #ALSU-PEGFR-B10K;) phospho-ERK Thr202/Tyr204 AlphaLISA kit (“pERK”; PerkinElmer #ALSU-PERK-A10K) or the phospho-ErbB2 Tyr1221/1222 AlphaLISA kit (“pHER2”; PerkinElmer #ALSU-PEB2-A10K;) according to the manufacturer's instructions. Briefly, cells were lysed with lysis buffer (10 μL) containing protease-inhibitor and phosphatase-inhibitor cocktails. The lysates were transferred into a new optical plate, incubated with the acceptor mix (5 μL) for 1.5-2 hours at room temperature in darkness, and then mixed with the donor mix (5 μL) overnight in darkness. Fluorescence was measured on a plate reader using the appropriate AlphaLISA settings. Half-maximal inhibitory concentration (IC50) was calculated from percent inhibition and inhibitor concentration using four-parameter logistic regression. […]
# [2] = biological target: Ba/F3 HER2-YVMA cells (HER2-A775_G776insYVMA) (Homo sapiens, UniProt P04626, DUP772-775, cells depend on it); experiment: Cell proliferation assay (CellTiter-Glo), Ba/F3 HER2-YVMA; details: read-out: Ba/F3 HER2-YVMA cell proliferation IC50
# Procedure: The gene encoding HER2-A775_G776insYVMA (“HER2-YVMA”) was synthesized at GeneRay, cloned into the retroviral construct pMSCV-puro (Biovector), and packaged into retroviral particles. The virus was used to infect Ba/F3 cells (RIKEN) at multiplicity of infection=1 or 10 for 1 day. Infected cells were rescued in media (RPMI-1640 with 10% fetal bovine serum and 1% streptomycin and penicillin) supplemented with mouse IL-3 (10 ng/mL) for 2 days, and stable cell lines were selected by IL-3 withdrawal and puromycin (0.8 μg/mL) for 7 days. Monoclones were selected by single-cell dilution in IL-3-free medium containing puromycin ([…]). Transformation of desired genes was confirmed by Sanger sequencing and western blot using the following antibody: HER2 (CST #2242).
# Ba/F3 cells were plated at 1,000 cells/well (40 μL), or NCI-H1781 or A431 cells were plated at 2,000 cells/well (40 μL), in a 384-well plate for 1 day. Test compounds (40 nL) were then added in a 3-fold dilution series using the TECAN EV0200 liquid handler and incubated for 48 hours (“2 days”), 72 hours (“3 days”), or 48 hours followed by renewal of compound solutions and further incubation for 72 hours (“2 days/3 days”). The 72-hour assay was necessary for NCI-H1781 cells, which are slow-growing, and the resupply of fresh compounds on day 3 obviated the potential confounding effects arising from compound degradation in cell media over 72 hours. Plates were equilibrated at room temperature for 15 minutes followed by addition of 40 μL CellTiter-Glo reagent (Promega). Luminescence was measured on a plate reader. Half-maximal inhibitory concentration (IC50) was calculated from percent inhibition and inhibitor concentration using four-parameter logistic regression. […] In these cases, the regression curve was drawn only for the first inflexion to accurately measure on-target growth inhibitory effect.
# Ba/F3, NCI-H1781, and A431 proliferation is driven by the oncogenes in the same way that cancer cell proliferation in humans is driven by the expression of equivalent oncogenes.
# [3] = test system: A431 cells (amplification of the wild-type EGFR gene), phospho-ERK Thr202/Tyr204; experiment: Cellular phosphorylation assay, pERK (phospho-ERK Thr202/Tyr204 AlphaLISA) in A431; details: Homo sapiens, A-431, compound incubated for 5 hours
# Procedure: as §1, §2
# T1 sequence (P00533 25-1210): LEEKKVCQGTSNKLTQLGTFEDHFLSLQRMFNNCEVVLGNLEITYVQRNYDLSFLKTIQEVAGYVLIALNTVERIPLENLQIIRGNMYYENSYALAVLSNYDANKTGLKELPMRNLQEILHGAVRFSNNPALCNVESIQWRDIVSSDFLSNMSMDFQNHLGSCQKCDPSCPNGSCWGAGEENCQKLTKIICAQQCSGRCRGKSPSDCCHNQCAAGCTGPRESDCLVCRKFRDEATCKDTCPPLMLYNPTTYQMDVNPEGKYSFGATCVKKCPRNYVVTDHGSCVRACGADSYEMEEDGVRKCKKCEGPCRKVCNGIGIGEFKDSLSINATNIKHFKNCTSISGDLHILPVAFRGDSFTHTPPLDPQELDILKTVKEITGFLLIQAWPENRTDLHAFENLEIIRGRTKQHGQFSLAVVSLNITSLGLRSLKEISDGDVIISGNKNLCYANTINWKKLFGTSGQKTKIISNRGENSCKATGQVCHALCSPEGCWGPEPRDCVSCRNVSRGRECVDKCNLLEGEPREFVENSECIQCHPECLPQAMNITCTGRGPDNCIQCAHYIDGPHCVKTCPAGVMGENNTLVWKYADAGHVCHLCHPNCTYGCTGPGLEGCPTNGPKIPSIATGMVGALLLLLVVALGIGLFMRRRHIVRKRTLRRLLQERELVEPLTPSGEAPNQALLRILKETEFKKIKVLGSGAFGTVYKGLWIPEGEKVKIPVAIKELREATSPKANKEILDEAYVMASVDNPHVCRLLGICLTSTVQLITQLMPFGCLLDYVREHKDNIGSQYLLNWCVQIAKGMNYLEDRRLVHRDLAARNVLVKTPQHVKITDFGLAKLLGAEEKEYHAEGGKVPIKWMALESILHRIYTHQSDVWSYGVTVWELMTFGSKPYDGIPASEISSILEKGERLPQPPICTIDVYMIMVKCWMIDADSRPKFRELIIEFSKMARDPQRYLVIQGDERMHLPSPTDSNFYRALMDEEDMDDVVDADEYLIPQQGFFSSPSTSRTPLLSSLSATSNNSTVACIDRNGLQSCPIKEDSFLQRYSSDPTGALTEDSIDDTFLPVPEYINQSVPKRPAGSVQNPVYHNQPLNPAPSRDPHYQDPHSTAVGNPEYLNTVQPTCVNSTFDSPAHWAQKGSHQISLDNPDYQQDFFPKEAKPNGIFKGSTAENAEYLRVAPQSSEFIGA
# Sequence of Ba/F3 HER2-YVMA cells (HER2-A775_G776insYVMA) (P04626 with tags, fused parts or gaps DUP772-775): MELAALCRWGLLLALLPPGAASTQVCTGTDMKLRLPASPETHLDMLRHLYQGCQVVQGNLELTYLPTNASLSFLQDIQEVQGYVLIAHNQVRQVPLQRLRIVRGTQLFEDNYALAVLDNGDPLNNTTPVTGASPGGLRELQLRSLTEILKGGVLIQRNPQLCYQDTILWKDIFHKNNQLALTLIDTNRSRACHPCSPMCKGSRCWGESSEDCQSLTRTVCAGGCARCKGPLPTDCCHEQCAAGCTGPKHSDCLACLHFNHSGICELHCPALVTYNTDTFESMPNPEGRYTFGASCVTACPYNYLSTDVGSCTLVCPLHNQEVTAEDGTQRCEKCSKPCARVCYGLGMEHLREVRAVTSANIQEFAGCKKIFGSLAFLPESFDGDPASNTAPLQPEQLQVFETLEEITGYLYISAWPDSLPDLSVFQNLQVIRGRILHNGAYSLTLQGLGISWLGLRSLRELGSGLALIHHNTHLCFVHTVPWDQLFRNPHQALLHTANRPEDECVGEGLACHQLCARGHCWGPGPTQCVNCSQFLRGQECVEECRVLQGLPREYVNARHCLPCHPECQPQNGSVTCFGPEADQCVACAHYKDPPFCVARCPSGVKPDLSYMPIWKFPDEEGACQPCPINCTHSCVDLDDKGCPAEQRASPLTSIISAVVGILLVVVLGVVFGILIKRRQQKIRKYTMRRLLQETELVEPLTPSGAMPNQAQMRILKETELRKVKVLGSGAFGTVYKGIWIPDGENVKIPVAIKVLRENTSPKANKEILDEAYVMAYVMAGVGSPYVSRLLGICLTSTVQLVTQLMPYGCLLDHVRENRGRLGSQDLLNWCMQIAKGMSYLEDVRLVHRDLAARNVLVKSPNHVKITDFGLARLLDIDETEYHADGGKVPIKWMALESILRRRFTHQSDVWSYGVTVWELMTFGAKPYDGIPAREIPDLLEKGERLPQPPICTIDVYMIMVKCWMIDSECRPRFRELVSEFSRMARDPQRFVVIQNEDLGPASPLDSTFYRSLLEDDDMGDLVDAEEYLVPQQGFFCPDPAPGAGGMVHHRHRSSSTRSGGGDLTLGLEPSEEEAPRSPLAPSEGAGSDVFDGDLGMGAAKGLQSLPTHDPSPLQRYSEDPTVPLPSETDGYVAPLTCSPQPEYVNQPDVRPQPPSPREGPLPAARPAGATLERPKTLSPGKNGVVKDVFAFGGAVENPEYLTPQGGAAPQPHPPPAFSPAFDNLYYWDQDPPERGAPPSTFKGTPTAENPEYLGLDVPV
IC50 [1] [nM],GI50 [2] [nM],IC50 [3] [nM],SMILES
< 100,< 100,100 to 500,C=CC(=O)N1CC=C(c2ccc3ncnc(Nc4ccc(Oc5ccc6ocnc6c5)c(C)c4)c3n2)CC1 [Example 10]
≥ 1000,500 to 1000,–,C=C(F)C(=O)N1CCN(c2ccc3ncnc(Nc4ccc(Oc5ccn6ncnc6c5)c(C)c4)c3n2)CC1 [Example 24]
≥ 1000,100 to 500,≥ 1000,Cc1cc(Nc2ncnc3ccc(C4=CCN(C(=O)/C=C/C5CCCN5C)CC4)nc23)ccc1Oc1ccn2ncnc2c1 (stereo not drawn) [Example 25]
≥ 1000,100 to 500,≥ 1000,C=CC(=O)N1CCC=C(c2ccc3ncnc(Nc4ccc(Oc5ccn6ncnc6c5)c(C)c4)c3n2)C1 [Example 27]
≥ 1000,100 to 500,≥ 1000,C=CC(=O)N1CCC(c2ccc3ncnc(Nc4ccc(Oc5ccn6ncnc6c5)c(C)c4)c3n2)C(C)C1 (stereo not drawn) [Example 28]
≥ 1000,100 to 500,–,C=CC(=O)N1CC=C(c2ccc3ncnc(Nc4ccc(Oc5ccn6ncnc6c5)c(C)c4)c3c2F)CC1 [Example 30]
≥ 1000,100 to 500,≥ 1000,C=CC(=O)N1CC(c2ccc3ncnc(Nc4ccc(Oc5ccn6ncnc6c5)c(C)c4)c3n2)C1 [Example 33]
≥ 1000,100 to 500,–,C=CC(=O)N1C[C@@H]2CN(c3ncc4ncnc(Nc5ccc(Oc6ccn7ncnc7c6)c(C)c5F)c4n3)C[C@@H]2C1 [Example 46]
≥ 1000,100 to 500,–,C=CC(=O)N1CCC2(C1)CN(c1ncc3ncnc(Nc4ccc(Oc5ccn6ncnc6c5)c(C)c4F)c3n1)C2 [Example 47]
≥ 1000,100 to 500,–,C=CC(=O)N1CCC2(CCN(c3ncc4ncnc(Nc5ccc(Oc6ccn7ncnc7c6)c(C)c5F)c4n3)C2)C1 (stereo not drawn) [Example 48]
100 to 500,< 100,–,C=CC(=O)N1CC=C(c2ncc3ncnc(Nc4ccc(Oc5ccn6ncnc6c5)c(C)c4F)c3n2)CCC1 [Example 57]
≥ 1000,< 100,≥ 1000,C=CC(=O)N1CCC(c2ncc3ncnc(Nc4cc(C)c(Oc5ccn6ncnc6c5)cc4F)c3n2)=C[C@@H]1C [Example 58]
–,100 to 500,≥ 1000,C=CC(=O)N1CC=C(c2ncc3ncnc(Nc4ccc(Oc5ccn6ncnc6c5)c(C(F)F)c4F)c3n2)C[C@@H]1C [Example 61]
≥ 1000,100 to 500,≥ 1000,C=CC(=O)N1CCN(c2ncc3ncnc(Nc4ccc(Oc5ccn6ncnc6n5)c(C)c4F)c3n2)C[C@H]1C [Example 65]
100 to 500,< 100,–,C=CC(=O)N1CC=C(c2nc3c(Nc4ccc(Oc5ccn6ncnc6c5)c(C)c4)ncnc3cc2OC)CC1 [Example 66]
≥ 1000,< 100,500 to 1000,C=CC(=O)N1CCN(c2ncc3ncnc(Nc4ccc(Oc5ccc6c(c5)ncn6C)cc4F)c3n2)CC1 [Example 67]
500 to 1000,< 100,100 to 500,C=CC(=O)N1CCN(c2ncc3ncnc(Nc4ccc(Oc5ccc6c(c5)ncn6C)c(C)c4F)c3n2)C[C@H]1C [Example 68]
500 to 1000,< 100,100 to 500,Cc1c(Oc2ccn3ncnc3c2)ccc(Nc2ncnc3cnc(C4=CCN(C(=O)/C=C/CN(C)C)CC4)nc23)c1F [Example 69]
100 to 500,< 100,100 to 500,C=CC(=O)N1CC=C(c2ccc3ncnc(Nc4ccc(Oc5ccn6ccnc6c5)c(C)c4)c3n2)CC1 [Example 70]
100 to 500,100 to 500,100 to 500,C=CC(=O)N1CC=C(c2ccc3ncnc(Nc4ccc(Oc5ccc6ccn(C)c6c5)c(C)c4)c3n2)CC1 [Example 71]

IC50 [1] [nM],GI50 [2] [nM],IC50 [3] [nM],SMILES
< 100,< 100,100 to 500,C=CC(=O)N1CC=C(c2ccc3ncnc(Nc4ccc(Oc5ccn6nccc6c5)c(C)c4)c3n2)CC1 [Example 72]
100 to 500,< 100,100 to 500,C=CC(=O)N1CCN(c2ncc3ncnc(Nc4ccc(Oc5cc6ncnn6cn5)c(C)c4F)c3n2)C[C@H]1C [Example 73]
100 to 500,< 100,< 100,C=CC(=O)N1CCN(c2ncc3ncnc(Nc4ccc(Oc5ccc6c(c5)ncn6C)c(C)c4F)c3n2)CC1 [Example 74]
500 to 1000,< 100,100 to 500,C=CC(=O)N1CCN(c2ccc3ncnc(Nc4ccc(Oc5ccn6c(C)cnc6c5)c(C)c4F)c3c2F)C[C@H]1C [Example 75]
≥ 1000,100 to 500,–,C=CC(=O)N1CCN(c2ncc3ncnc(Nc4cc(C)c(Oc5ccn6ncnc6c5)cc4F)c3n2)CC1(C)C [Example 76]
100 to 500,< 100,–,C=CC(=O)N1CCN(c2ncc3ncnc(Nc4ccc(Oc5ccn6ncnc6c5)c(C)c4F)c3n2)CC1(C)C [Example 77]
≥ 1000,< 100,500 to 1000,C=CC(=O)N1CC=C(c2ncc3ncnc(Nc4ccc(Oc5ccn6ncnc6c5)c(C)c4F)c3n2)C[C@H]1C [Example 80]
100 to 500,< 100,100 to 500,C=CC(=O)N1CCN(c2ncc3ncnc(Nc4ccc(Oc5ccn6ncnc6c5)c(C)c4F)c3n2)C[C@H]1CF [Example 81]
< 100,< 100,100 to 500,C=CC(=O)N1CCN(c2ncc3ncnc(Nc4ccc(Oc5ccn6ncnc6c5)c(Cl)c4F)c3n2)C[C@H]1C [Example 82]
100 to 500,< 100,100 to 500,Cc1c(Oc2ccn3ncnc3c2)ccc(Nc2ncnc3cnc(C4=C[C@@H](C)N(C(=O)/C=C/CN(C)C)CC4)nc23)c1F [Example 83]
500 to 1000,< 100,100 to 500,C=CC(=O)N1CCN(c2ncc3ncnc(Nc4ccc(Oc5ccc6c(c5)ncn6C)c(C)c4F)c3c2F)C[C@H]1C [Example 84]
≥ 1000,< 100,≥ 1000,C=CC(=O)N1CC=C(c2ccc3ncnc(Nc4ccc(Oc5ccn6ncnc6c5)c(C)c4)c3n2)C[C@@H]1C [Example 85]
100 to 500,< 100,100 to 500,C=CC(=O)N1CC=C(c2ccc3ncnc(Nc4ccc(Oc5ccn6ncnc6c5)c(C)c4)c3n2)C[C@H]1C [Example 86]
≥ 1000,< 100,–,C=CC(=O)N1C(C)CN(c2ccc3ncnc(Nc4ccc(Oc5ccn6ncnc6c5)c(C)c4)c3n2)CC1C (stereo not drawn) [Example 92]
≥ 1000,< 100,–,C=CC(=O)N1CCN(c2ccc3ncnc(Nc4ccc(Oc5ccn6ncnc6c5)c(C)c4F)c3c2F)CC1 [Example 93]
500 to 1000,< 100,≥ 1000,C=CC(=O)N1CCC(c2ncc3ncnc(Nc4ccc(Oc5ccn6ncnc6c5)c(C)c4)c3n2)=C[C@@H]1C [Example 94]
–,< 100,500 to 1000,C=CC(=O)N1CC=C(c2ncc3ncnc(Nc4ccc(Oc5cc(C)n6ncnc6c5)c(C)c4F)c3n2)C[C@@H]1C [Example 97]
500 to 1000,< 100,–,C=CC(=O)N1CCN(c2ncc3ncnc(Nc4ccc(Oc5ccn6ncnc6c5)c(C)c4F)c3n2)CC1 [Example 98]
< 100,< 100,–,C=CC(=O)N1CCN(c2ncc3ncnc(Nc4ccc(Oc5ccn6ncnc6c5)c(C)c4F)c3n2)C[C@H]1C(F)F [Example 99]
